Source: ChEMBL document CHEMBL1201862, “PubChem BioAssay data set” (2004)
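Compound exposure: 48 hours, 5 concentrations, 96-well plates. Here, GI50 denotes the concentration required for 50% inhibition of growth.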 Active and inactive are the calls of the source. Rule as the data show it: active = GI50 up to about 1.1 µM and inactive = higher.

Experiments:
Experiment in all cases: DTP human tumour cell line panel, 48 h
CCRF-CEM = system: CCRF-CEM
COLO 205 = system: COLO 205
EKVX = system: EKVX
HCC 2998 = system: HCC 2998
HCT-116 = system: HCT-116
HL-60 = system: HL-60
HT-29 = system: HT-29
IGROV-1 = system: IGROV-1
KM12 = system: KM12
NCI-H522 = system: NCI-H522
OVCAR-3 = system: OVCAR-3
SF-539 = system: SF-539
SN12C = system: SN12C
SW-620 = system: SW-620
TK-10 = system: TK-10
U-251 = system: U-251

| SMILES | GI50 (CCRF-CEM) | GI50 (COLO 205) | GI50 (EKVX) | GI50 (HCC 2998) | GI50 (HCT-116) | GI50 (HL-60) | GI50 (HT-29) | GI50 (IGROV-1) | GI50 (KM12) | GI50 (NCI-H522) | GI50 (OVCAR-3) | GI50 (SF-539) | GI50 (SN12C) | GI50 (SW-620) | GI50 (TK-10) | GI50 (U-251) |
| --- | --- | --- | --- | --- | --- | --- | --- | --- | --- | --- | --- | --- | --- | --- | --- | --- |
| CCOC(=O)CNC(=O)c1nc[nH]c1/N=N/N(C)C | > 100 µM (inactive) | > 100 µM (inactive) | > 100 µM (inactive) | > 100 µM (inactive) | > 100 µM (inactive) | > 100 µM (inactive) | > 100 µM (inactive) | > 100 µM (inactive) | > 100 µM (inactive) | > 100 µM (inactive) | > 100 µM (inactive) | > 100 µM (inactive) | > 100 µM (inactive) | > 100 µM (inactive) | > 100 µM (inactive) | > 100 µM (inactive) |
| CC1=C/C(=C2/N=C(N(C)C)SS2)C(C)=N1.[O-][Cl+3]([O-])([O-])O |  | 3.07 µM (inactive) | > 100 µM (inactive) | > 100 µM (inactive) | > 100 µM (inactive) | > 100 µM (inactive) | > 100 µM (inactive) | > 100 µM (inactive) | > 100 µM (inactive) | 4.33 µM (inactive) | > 100 µM (inactive) | > 100 µM (inactive) | > 100 µM (inactive) | > 100 µM (inactive) | > 100 µM (inactive) | > 100 µM (inactive) |
| CC(=O)NNc1nc(C)c(C(=O)/C=C/c2ccc(NC(C)=O)cc2)s1 | > 100 µM (inactive) | > 100 µM (inactive) | 71.3 µM (inactive) | > 100 µM (inactive) |  | > 100 µM (inactive) | > 100 µM (inactive) | > 100 µM (inactive) | > 100 µM (inactive) | > 100 µM (inactive) | > 100 µM (inactive) | > 100 µM (inactive) | > 100 µM (inactive) | > 100 µM (inactive) | > 100 µM (inactive) | > 100 µM (inactive) |
| COc1ccc(OC)c2c(C(=O)O)c(Cc3ccccc3)ccc12 | > 10 µM (inactive) | > 100 µM (inactive) | > 100 µM (inactive) | > 100 µM (inactive) | > 100 µM (inactive) | > 100 µM (inactive) | > 100 µM (inactive) | > 100 µM (inactive) | > 100 µM (inactive) | > 100 µM (inactive) | > 100 µM (inactive) |  | > 100 µM (inactive) | > 100 µM (inactive) | > 100 µM (inactive) | > 100 µM (inactive) |
| C(=C\c1cc(CCc2nc3ccccc3[nH]2)n[nH]1)/c1ccccc1 | 89.3 µM (inactive) | > 100 µM (inactive) | > 100 µM (inactive) | > 100 µM (inactive) | > 100 µM (inactive) | > 100 µM (inactive) | > 100 µM (inactive) | > 100 µM (inactive) | > 100 µM (inactive) | > 100 µM (inactive) | > 100 µM (inactive) | > 100 µM (inactive) | > 100 µM (inactive) | > 100 µM (inactive) | > 100 µM (inactive) | > 100 µM (inactive) |
| CCCCCCCCCCCCOC(=S)NC | 33.4 µM (inactive) |  | 20.4 µM (inactive) | 17.5 µM (inactive) | 16.9 µM (inactive) | 27.6 µM (inactive) | 18.6 µM (inactive) | 18 µM (inactive) | 14.3 µM (inactive) | 27.5 µM (inactive) |  | 18.2 µM (inactive) | 17.7 µM (inactive) | 18.3 µM (inactive) | 12.8 µM (inactive) | 18.3 µM (inactive) |
| CCN(CC)CCC(=O)/C=C/c1ccc(C)cc1 | 10.1 µM (inactive) | 4.72 µM (inactive) | 17.1 µM (inactive) | 18.6 µM (inactive) | 13.4 µM (inactive) | 10.8 µM (inactive) | 15.1 µM (inactive) | 15.3 µM (inactive) | 3.18 µM (inactive) |  | 16.7 µM (inactive) | 6.32 µM (inactive) | 12 µM (inactive) | 4.69 µM (inactive) | 6.85 µM (inactive) | 10.2 µM (inactive) |
| C/C(CC(=O)NCCc1ccccc1)=N\NC(=O)C[n+]1ccccc1 | > 10 µM (inactive) | > 100 µM (inactive) | > 100 µM (inactive) | > 100 µM (inactive) | > 100 µM (inactive) | > 100 µM (inactive) | > 100 µM (inactive) | > 100 µM (inactive) | > 100 µM (inactive) | > 100 µM (inactive) | > 100 µM (inactive) | > 100 µM (inactive) |  | > 100 µM (inactive) | > 100 µM (inactive) | > 100 µM (inactive) |
| COC1C=C(Nc2cccc(Cl)c2)C(=O)C1 (stereo not given) | 63.1 µM (inactive) | 10.4 µM (inactive) | 29.4 µM (inactive) | 53.8 µM (inactive) | 40.2 µM (inactive) | 36 µM (inactive) | 65.3 µM (inactive) | > 100 µM (inactive) | 71 µM (inactive) | 24.9 µM (inactive) | 65.3 µM (inactive) | 58.2 µM (inactive) | 64.9 µM (inactive) | 53.2 µM (inactive) | > 100 µM (inactive) | 32.3 µM (inactive) |
| CCOC(=O)NC1C2CC(=O)C(O2)C1OCc1ccccc1 (stereo not given) | > 100 µM (inactive) | > 100 µM (inactive) |  | > 100 µM (inactive) |  | > 100 µM (inactive) | > 100 µM (inactive) | > 100 µM (inactive) | > 100 µM (inactive) |  | > 100 µM (inactive) | > 100 µM (inactive) | > 100 µM (inactive) | > 100 µM (inactive) |  | > 100 µM (inactive) |
| O=c1cc(-c2ccccc2)[nH]c2c(Cl)cccc12 | 16.1 µM (inactive) | 29.7 µM (inactive) | 49.5 µM (inactive) | 14.8 µM (inactive) | 7.24 µM (inactive) | 9.12 µM (inactive) | 20.8 µM (inactive) | 4.86 µM (inactive) |  |  | 24.5 µM (inactive) | 15.3 µM (inactive) | 46.2 µM (inactive) | 3.86 µM (inactive) | > 100 µM (inactive) | 87.5 µM (inactive) |
| COc1cc2c(cc1OC)C1[C@@H](c3ccccc3)OCN1CC2 (stereo not given in full) | > 77.6 µM (inactive) | 91.2 µM (inactive) | > 100 µM (inactive) | > 100 µM (inactive) | > 82.2 µM (inactive) | 54.5 µM (inactive) | > 100 µM (inactive) | > 100 µM (inactive) | > 100 µM (inactive) | > 100 µM (inactive) | > 100 µM (inactive) | > 100 µM (inactive) | > 100 µM (inactive) | 56.8 µM (inactive) | > 100 µM (inactive) | > 100 µM (inactive) |
| CN(C)c1ccc(/C=C2\N=C(c3ccc(N)cc3)OC2=O)cc1 | > 100 µM (inactive) | > 100 µM (inactive) | > 100 µM (inactive) | > 100 µM (inactive) |  | > 100 µM (inactive) | > 100 µM (inactive) | > 100 µM (inactive) | > 100 µM (inactive) | > 100 µM (inactive) | > 100 µM (inactive) | > 100 µM (inactive) | > 100 µM (inactive) | > 100 µM (inactive) | > 100 µM (inactive) | > 100 µM (inactive) |
| N#CC(C(=O)CCC(=O)Nc1ccc(Cl)cc1)c1ccccc1Cl (stereo not given) | > 100 µM (inactive) | > 100 µM (inactive) | > 100 µM (inactive) |  | 61.1 µM (inactive) | > 100 µM (inactive) |  | > 100 µM (inactive) | 43.1 µM (inactive) | > 100 µM (inactive) | > 100 µM (inactive) | > 100 µM (inactive) | > 100 µM (inactive) | > 100 µM (inactive) | > 100 µM (inactive) | > 100 µM (inactive) |
| CCCC(=O)c1c(NOC2OCC(OC(C)=O)C(OC(C)=O)C2OC(C)=O)nc(OC)n(C)c1=O (stereo not given) | 3.25 µM (inactive) | > 100 µM (inactive) | > 100 µM (inactive) | > 100 µM (inactive) | > 100 µM (inactive) | 0.498 µM (active) | > 100 µM (inactive) | > 100 µM (inactive) | > 100 µM (inactive) |  | > 100 µM (inactive) | > 100 µM (inactive) | > 100 µM (inactive) | > 100 µM (inactive) | > 100 µM (inactive) | > 100 µM (inactive) |
| Cc1cccc2c3ccc4c(c3n(C)c12)C(=O)C=CC4=O | 18.2 µM (inactive) | > 100 µM (inactive) | > 100 µM (inactive) | > 100 µM (inactive) | > 100 µM (inactive) | 17.1 µM (inactive) | > 100 µM (inactive) | > 100 µM (inactive) | > 100 µM (inactive) | > 100 µM (inactive) | > 100 µM (inactive) | > 100 µM (inactive) | > 100 µM (inactive) | > 100 µM (inactive) | > 100 µM (inactive) |  |
| O=C(O)CC(O)(c1ccccc1C(=O)O)c1cccc2ccccc12 (stereo not given) | > 100 µM (inactive) | > 100 µM (inactive) | > 100 µM (inactive) |  | > 100 µM (inactive) | > 100 µM (inactive) | > 100 µM (inactive) | > 100 µM (inactive) | > 100 µM (inactive) | > 100 µM (inactive) | > 100 µM (inactive) | > 100 µM (inactive) | > 100 µM (inactive) | > 100 µM (inactive) | > 100 µM (inactive) | > 100 µM (inactive) |
| N#CC(C(=O)CCC(=O)Nc1ccc(Cl)c(Cl)c1)c1ccccc1 (stereo not given) |  |  | > 100 µM (inactive) | > 100 µM (inactive) | > 100 µM (inactive) | > 100 µM (inactive) | > 100 µM (inactive) | > 100 µM (inactive) | > 100 µM (inactive) |  | > 100 µM (inactive) | > 100 µM (inactive) | > 100 µM (inactive) | > 100 µM (inactive) |  | > 100 µM (inactive) |
| O=C1CC23CCCCCCCCCCC2(C1)CC(=O)C3 (stereo not given) | 18.9 µM (inactive) | 18.4 µM (inactive) | 30.1 µM (inactive) | 32.7 µM (inactive) |  | 17.4 µM (inactive) | 18.1 µM (inactive) | 25.7 µM (inactive) | 21.3 µM (inactive) | 18.6 µM (inactive) | 17.7 µM (inactive) | 33.7 µM (inactive) | 17.6 µM (inactive) | 40.6 µM (inactive) | 38.5 µM (inactive) | 22.8 µM (inactive) |
